Measurements: patent US10588317B2, “Isoxazoline-substituted benzamides and analogues as insecticides” (priority 2015, dated 2020)
Where two headings read alike, the source gives them in different places.

How the values were obtained:
Type in all cases: in vivo
Diabrotica balteata = Diabrotica balteata (corn root worm), sprayed maize sprouts; conditions: 96 h, read-out: effect in at least one of the two categories (mortality or growth inhibition); for percent effect (mortality or growth inhibition) at 200 ppm: application rate 200 ppm, L2 larvae, 4 days after infestation
Summary of the method: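 Read-out at 4 days post-infestation: mortality and growth inhibition relative to untreated samples. Test solutions (200 ppm, from DMSO stocks) were sprayed onto agar-held maize sprouts, which after drying received 6–10 L2 larvae per well.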

Euschistus heros = Euschistus heros (neotropical brown stink bug), sprayed soybean leaves; conditions: 120 h, read-out: effect in at least one of the two categories (mortality or growth inhibition); for percent effect (mortality or growth inhibition) at 200 ppm: application rate 200 ppm, N2 nymphs, 5 days after infestation
Summary of the method: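 Scored 5 days post-infestation versus untreated controls, for both mortality and growth inhibition: N2 nymphs placed on agar-mounted soybean leaves previously sprayed at 200 ppm with aqueous test solutions from DMSO stocks and left to dry.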

Myzus persicae = Myzus persicae (green peach aphid): feeding/contact activity; conditions: 144 h
Experimental: (§1) Sunflower leaf discs were placed onto agar in a 24-well microtiter plate and sprayed with aqueous test solutions prepared from 10'000 ppm DMSO stock solutions. After drying, the leaf discs were infested with an aphid population of mixed ages. The samples were assessed for mortality 6 days after infestation.

Plutella xylostella = Plutella xylostella (diamond back moth), artificial diet; conditions: 120 h, read-out: effect in at least one of the two categories (mortality or growth inhibition); for percent effect (mortality or growth inhibition) at 200 ppm: application rate 200 ppm, L2 larvae, 5 days after infestation
Summary of the method: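 L2 larvae (10-15 per well) fed on compound-treated, dried artificial diet; test solutions diluted in water from 10'000 ppm DMSO stocks. Readout 5 days post-infestation as mortality or growth inhibition versus untreated diet, with at least 80% effect at 200 ppm as threshold.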

Spodoptera littoralis = Spodoptera littoralis (Egyptian cotton leaf worm), sprayed cotton leaf discs; conditions: foliar, 72 h, read-out: control (mortality, anti-feeding effect, growth inhibition)
Summary of the method: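 Five first-instar larvae placed on dried cotton leaf discs (on agar) previously sprayed with aqueous dilutions of 10'000 ppm DMSO stocks. Scored at 3 days against untreated discs for mortality, feeding inhibition and growth inhibition; any category above untreated counts as control.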

Tetranychus urticae = Tetranychus urticae (two-spotted spider mite): feeding/contact activity; conditions: 192 h
Experimental: Bean leaf discs on agar in 24-well microtiter plates were sprayed with aqueous test solutions prepared from 10'000 ppm DMSO stock solutions. After drying the leaf discs were infested with a mite population of mixed ages. The samples were assessed for mortality on mixed population (mobile stages) 8 days after infestation.

Thrips tabaci = Thrips tabaci (onion thrips): feeding/contact activity; conditions: 144 h
Experimental: as §1, with “on” for “onto”, “in” for “in a”, “plates” for “plate”, “drying” for “drying,”, “a Thrips” for “an aphid”

[1] = application rate 200 ppm, aphid population of mixed ages, 6 days after infestation, read-out: mortality
[2] = application rate 200 ppm, L1 larvae, 3 days after infestation
[3] = application rate 200 ppm, mixed population (mobile stages), 8 days after infestation, read-out: mortality
[4] = application rate 200 ppm, Thrips population of mixed ages, 6 days after infestation, read-out: mortality

Cc1cc(C2=NO[C@@](c3ccc(F)c(C(F)(F)F)c3)(C(F)(F)F)C2)ccc1C(=O)N[C@H]1CON(S(C)(=O)=O)C1 [Compound A183]
≥ 80%: percent effect (mortality or growth inhibition) at 200 ppm (Diabrotica balteata) | percent effect (mortality or growth inhibition) at 200 ppm (Euschistus heros) | mortality at 200 ppm (Myzus persicae; [1]) | percent effect (mortality or growth inhibition) at 200 ppm (Plutella xylostella) | mortality at 200 ppm (Spodoptera littoralis; [2]) | mortality at 200 ppm (Tetranychus urticae; [3]) | mortality at 200 ppm (Thrips tabaci; [4])

Cc1cc(C2=NO[C@](c3ccc(F)c(C(F)(F)F)c3)(C(F)(F)F)C2)ccc1C(=O)N[C@@H]1CON(S(=O)(=O)N(C)C)C1 [Compound A184]
≥ 80%: percent effect (mortality or growth inhibition) at 200 ppm (Diabrotica balteata) | percent effect (mortality or growth inhibition) at 200 ppm (Euschistus heros) | mortality at 200 ppm (Myzus persicae; [1]) | percent effect (mortality or growth inhibition) at 200 ppm (Plutella xylostella) | mortality at 200 ppm (Spodoptera littoralis; [2]) | mortality at 200 ppm (Tetranychus urticae; [3]) | mortality at 200 ppm (Thrips tabaci; [4])

Cc1cc(C2=NO[C@](c3cc(Cl)cc(C(F)F)c3)(C(F)(F)F)C2)ccc1C(=O)N[C@H]1CON(S(C)(=O)=O)C1 [Compound A185]
≥ 80%: percent effect (mortality or growth inhibition) at 200 ppm (Diabrotica balteata) | percent effect (mortality or growth inhibition) at 200 ppm (Euschistus heros) | mortality at 200 ppm (Myzus persicae; [1]) | percent effect (mortality or growth inhibition) at 200 ppm (Plutella xylostella) | mortality at 200 ppm (Spodoptera littoralis; [2]) | mortality at 200 ppm (Tetranychus urticae; [3]) | mortality at 200 ppm (Thrips tabaci; [4])

Cc1cc(C2=NO[C@](c3cc(Cl)cc(C(F)F)c3)(C(F)(F)F)C2)ccc1C(=O)N[C@H]1CON(S(=O)(=O)N(C)C)C1 [Compound A186]
≥ 80%: percent effect (mortality or growth inhibition) at 200 ppm (Diabrotica balteata) | percent effect (mortality or growth inhibition) at 200 ppm (Euschistus heros) | mortality at 200 ppm (Myzus persicae; [1]) | percent effect (mortality or growth inhibition) at 200 ppm (Plutella xylostella) | mortality at 200 ppm (Spodoptera littoralis; [2]) | mortality at 200 ppm (Tetranychus urticae; [3]) | mortality at 200 ppm (Thrips tabaci; [4])

Cc1cc(C2=NO[C@@](c3cc(Cl)c(F)c(Cl)c3)(C(F)(F)F)C2)ccc1C(=O)N[C@@H]1CON(S(=O)(=O)N(C)C2(C#N)CC2)C1 [Compound A187]
≥ 80%: percent effect (mortality or growth inhibition) at 200 ppm (Diabrotica balteata) | percent effect (mortality or growth inhibition) at 200 ppm (Euschistus heros) | mortality at 200 ppm (Myzus persicae; [1]) | percent effect (mortality or growth inhibition) at 200 ppm (Plutella xylostella) | mortality at 200 ppm (Spodoptera littoralis; [2]) | mortality at 200 ppm (Tetranychus urticae; [3]) | mortality at 200 ppm (Thrips tabaci; [4])

Cc1cc(C2=NO[C@@](c3cc(Cl)c(F)c(Cl)c3)(C(F)(F)F)C2)ccc1C(=O)N[C@@H]1CON(S(=O)(=O)N2CCOCC2)C1 [Compound A188, 4-[(5S)-5-(3,5-dichloro-4-fluorophenyl)-5-(trifluoromethyl)-4H-1,2-oxazol-3-yl]-2-methyl-N-[(4S)-2-morpholin-4-ylsulfonyl-1,2-oxazolidin-4-yl]benzamide]
≥ 80%: percent effect (mortality or growth inhibition) at 200 ppm (Diabrotica balteata) | percent effect (mortality or growth inhibition) at 200 ppm (Euschistus heros) | mortality at 200 ppm (Myzus persicae; [1]) | percent effect (mortality or growth inhibition) at 200 ppm (Plutella xylostella) | mortality at 200 ppm (Spodoptera littoralis; [2]) | mortality at 200 ppm (Tetranychus urticae; [3]) | mortality at 200 ppm (Thrips tabaci; [4])

Cc1cc(C2=NO[C@@](c3cc(Cl)c(F)c(Cl)c3)(C(F)(F)F)C2)ccc1C(=O)N[C@H]1CON(S(=O)(=O)CBr)C1 [Compound A189, N-[(4R)-2-(bromomethylsulfonyl)-1,2-oxazolidin-4-yl]-4-[(5S)-5-(3,5-dichloro-4-fluorophenyl)-5-(trifluoromethyl)-4H-1,2-oxazol-3-yl]-2-methylbenzamide]
≥ 80%: percent effect (mortality or growth inhibition) at 200 ppm (Diabrotica balteata) | percent effect (mortality or growth inhibition) at 200 ppm (Euschistus heros) | mortality at 200 ppm (Myzus persicae; [1]) | percent effect (mortality or growth inhibition) at 200 ppm (Plutella xylostella) | mortality at 200 ppm (Spodoptera littoralis; [2]) | mortality at 200 ppm (Tetranychus urticae; [3]) | mortality at 200 ppm (Thrips tabaci; [4])

Cc1cc(C2=NO[C@](c3cc(Cl)c(F)c(Cl)c3)(C(F)(F)F)C2)ccc1C(=O)N[C@H]1CON(S(=O)(=O)CC(F)(F)F)C1 [Compound A192, 4-[(5R)-5-(3,5-dichloro-4-fluorophenyl)-5-(trifluoromethyl)-4H-1,2-oxazol-3-yl]-2-methyl-N-[(4R)-2-(2,2,2-trifluoroethylsulfonyl)-1,2-oxazolidin-4-yl]benzamide]
≥ 80%: percent effect (mortality or growth inhibition) at 200 ppm (Diabrotica balteata) | percent effect (mortality or growth inhibition) at 200 ppm (Euschistus heros) | mortality at 200 ppm (Myzus persicae; [1]) | percent effect (mortality or growth inhibition) at 200 ppm (Plutella xylostella) | mortality at 200 ppm (Spodoptera littoralis; [2]) | mortality at 200 ppm (Tetranychus urticae; [3]) | mortality at 200 ppm (Thrips tabaci; [4])

Cc1cc(C2=NO[C@@](c3cc(Cl)c(C(F)F)c(Cl)c3)(C(F)(F)F)C2)ccc1C(=O)N[C@@H]1CON(S(=O)(=O)N(C)C)C1 [Compound A196, 4-[(5S)-5-[3,5-dichloro-4-(difluoromethyl)phenyl]-5-(trifluoromethyl)-4H-1,2-oxazol-3-yl]-N-[(4S)-2-(dimethylsulfamoyl)-1,2-oxazolidin-4-yl]-2-methylbenzamide]
≥ 80%: percent effect (mortality or growth inhibition) at 200 ppm (Diabrotica balteata) | percent effect (mortality or growth inhibition) at 200 ppm (Euschistus heros) | mortality at 200 ppm (Myzus persicae; [1]) | percent effect (mortality or growth inhibition) at 200 ppm (Plutella xylostella) | mortality at 200 ppm (Spodoptera littoralis; [2]) | mortality at 200 ppm (Tetranychus urticae; [3]) | mortality at 200 ppm (Thrips tabaci; [4])

Cc1cc(C2=NO[C@@](c3cc(Cl)c(C(F)F)c(Cl)c3)(C(F)(F)F)C2)ccc1C(=O)N[C@@H]1CON(S(C)(=O)=O)C1 [Compound A197, 4-[(5S)-5-[3,5-dichloro-4-(difluoromethyl)phenyl]-5-(trifluoromethyl)-4H-1,2-oxazol-3-yl]-2-methyl-N-[(4S)-2-methylsulfonyl-1,2-oxazolidin-4-yl]benzamide]
≥ 80%: percent effect (mortality or growth inhibition) at 200 ppm (Diabrotica balteata) | percent effect (mortality or growth inhibition) at 200 ppm (Euschistus heros) | mortality at 200 ppm (Myzus persicae; [1]) | percent effect (mortality or growth inhibition) at 200 ppm (Plutella xylostella) | mortality at 200 ppm (Spodoptera littoralis; [2]) | mortality at 200 ppm (Tetranychus urticae; [3]) | mortality at 200 ppm (Thrips tabaci; [4])

Cc1cc(C2=NO[C@@](c3cc(Cl)cc(Cl)c3)(C(F)(F)F)C2)ccc1C(=O)N[C@H]1CON(S(=O)(=O)F)C1 [Compound A198, (4R)-4-[[4-[(5S)-5-(3,5-dichlorophenyl)-5-(trifluoromethyl)-4H-isoxazol-3-yl]-2-methyl-benzoyl]amino]isoxazolidine-2-sulfonyl fluoride]
≥ 80%: percent control (mortality or growth inhibition) at 200 ppm (Diabrotica balteata) | percent control (mortality or growth inhibition) at 200 ppm (Euschistus heros) | mortality at 200 ppm (Myzus persicae) | percent control (mortality or growth inhibition) at 200 ppm (Plutella xylostella) | mortality at 200 ppm (Spodoptera littoralis) | mortality at 200 ppm (Tetranychus urticae) | mortality at 200 ppm (Thrips tabaci)

Cc1cc(C2=NO[C@@](c3cc(Cl)c(F)c(Cl)c3)(C(F)(F)F)C2)ccc1C(=O)N[C@@H]1CON(S(=O)(=O)CC(=O)O)C1 [Compound A200]
≥ 80%: percent effect (mortality or growth inhibition) at 200 ppm (Diabrotica balteata) | percent effect (mortality or growth inhibition) at 200 ppm (Euschistus heros) | mortality at 200 ppm (Myzus persicae; [1]) | percent effect (mortality or growth inhibition) at 200 ppm (Plutella xylostella) | mortality at 200 ppm (Spodoptera littoralis; [2]) | mortality at 200 ppm (Tetranychus urticae; [3]) | mortality at 200 ppm (Thrips tabaci; [4])

Cc1cc(C2=NO[C@@](c3cc(Cl)c(OC(F)F)c(Cl)c3)(C(F)(F)F)C2)ccc1C(=O)N[C@@H]1CON(S(C)(=O)=O)C1 [Compound A204, 4-[(5S)-5-[3,5-dichloro-4-(difluoromethoxy)phenyl]-5-(trifluoromethyl)-4H-1,2-oxazol-3-yl]-2-methyl-N-[(4S)-2-methylsulfonyl-1,2-oxazolidin-4-yl]benzamide]
≥ 80%: percent effect (mortality or growth inhibition) at 200 ppm (Diabrotica balteata) | percent effect (mortality or growth inhibition) at 200 ppm (Euschistus heros) | mortality at 200 ppm (Myzus persicae; [1]) | percent effect (mortality or growth inhibition) at 200 ppm (Plutella xylostella) | mortality at 200 ppm (Spodoptera littoralis; [2]) | mortality at 200 ppm (Tetranychus urticae; [3]) | mortality at 200 ppm (Thrips tabaci; [4])

Cc1cc(C2=NO[C@@](c3cc(Cl)c(OC(F)F)c(Cl)c3)(C(F)(F)F)C2)ccc1C(=O)N[C@@H]1CON(S(=O)(=O)N(C)C)C1 [Compound A205, 4-[(5S)-5-[3,5-dichloro-4-(difluoromethoxy)phenyl]-5-(trifluoromethyl)-4H-1,2-oxazol-3-yl]-N-[(4S)-2-(dimethylsulfamoyl)-1,2-oxazolidin-4-yl]-2-methylbenzamide]
≥ 80%: percent effect (mortality or growth inhibition) at 200 ppm (Diabrotica balteata) | percent effect (mortality or growth inhibition) at 200 ppm (Euschistus heros) | mortality at 200 ppm (Myzus persicae; [1]) | percent effect (mortality or growth inhibition) at 200 ppm (Plutella xylostella) | mortality at 200 ppm (Spodoptera littoralis; [2]) | mortality at 200 ppm (Tetranychus urticae; [3]) | mortality at 200 ppm (Thrips tabaci; [4])
